Consider three compounds from ChEMBL document CHEMBL1134224, “Synthetic analogues of SB-219383. Novel C-glycosyl peptides as inhibitors of tyrosyl tRNA synthetase” (Bioorg Med Chem Lett, 2001).

In test [1] the test system is Tyrosine--tRNA ligase (Staphylococcus aureus). As to the kind of experiment: Inhibitory activity (3 uM) against Staphylococcus aureus tyrosyl tRNA synthetase (YRS) using aminoacylation assay; No inhibition.
Test [2] addresses Tyrosine--tRNA ligase (Staphylococcus aureus). As to the kind of experiment: Inhibitory activity against Staphylococcus aureus tyrosyl tRNA synthetase (YRS) using aminoacylation assay.

For `N[C@@H](Cc1ccc(O)cc1)C(=O)N[C@@H](C(=O)O)[C@H]1OC[C@@H](O)[C@@H](O)[C@@H]1O`, in test [1], the IC50 entry was “Not Active”.

Regarding `N[C@@H](Cc1ccc(O)cc1)C(=O)N[C@H](C(=O)O)[C@H]1OC[C@@H](O)[C@@H](O)[C@@H]1O`, the IC50 entry in test [1] is “Not Active”.

The compound `N[C@@H](Cc1ccc(O)cc1)C(=O)N[C@H](C(=O)O)[C@H]1[C@H](O)[C@@H](O)[C@@H](O)CN1O` showed an IC50 in test [2] of 1.2 nM.
